Experimental data: patent publication US12728098B2, “Methods of producing extracellular vesicles” (LONZA SALES AG, priority 2019, dated 2026)
pEC50: −log10 of the molar value.

Key:
[1] = tested on: splenocytes; test: Tumor antigen-specific IFN-γ production in splenocytes (Trp2, GP100 & Tyr peptides); format: in vivo, mice; details: two IT doses, day 4, FIG. 13G
Description: FIG. 13B provides representative H&E stained images from PBS, CDN2 (20 μg), and exoCDN2 (0.12 μg) treated samples. FIG. 13C is a table showing the number of complete responders by histopathological analysis. […] FIG. 13F is a graphical representation of tumor growth after CD8 T cell depletion in B16F10 tumor bearing mice following administration of the IgG (10 mg/kg) or anti-CD8 antibody (10 mg/kg) intraperitoneally, one day before IT injection (n=5 per group). Blue arrows indicate intraperitoneal injection days (FIG. 13F). […] Data are presented as means±s.e.m.
We next evaluated the capacity of exoSTING to induce systemic, antigen specific T cell responses in the B16F10 tumor model. Several tumor-associated CD8-dependent antigens have been identified as dominant antigens from B16F10 tumor cells (Kreiter et al., Nature 520, 692-696 (2015), which is incorporated by reference herein in its entirety).

[2] = tested on: T cells stimulated with anti-CD3 and anti-CD28; format: cell-based, human; details: FIG. 17G
Excerpt: (§1) FIGS. 17F and 17G show representative dose-response curves of IFN-β production (FIG. 17F) and cytotoxicity (FIG. 17G) in stimulated T cells after treating with free CDN2 and exoCDN2. T cells were purified from human PBMCs and stimulated with anti-CD3/anti-CD28.
(§2) Next, we characterized the effect of exoSTING for free CDN on naïve or TCR stimulated T cells. We purified T cells and treated them with a dose titration of exoSTING or free CDN and compared IFNβ production in the presence or absence of TCR stimulation. […] We next characterized induction of T cell death using Cytotox dye staining following exoSTING or free CDN2 treatment in T cells stimulated with anti-CD3 and anti-CD28. Following free CDN2 treatment, we observed a dose dependent increase in T cell death (up to ~20% of T cells) as measured by Cytotox dye staining (FIG. 17G). […] Importantly, exoSTING preserves the viability of TCR stimulated T cells.

[3] = CDN in plasma / systemic circulation after IT injection, LC-MS/MS; format: in vivo, C57BL/6 mice
Description: (§3) C57BL/6 mice were implanted subcutaneously with 1×10^6 B16F10 cells. FIGS. 14A and […] are graphical representations showing the concentration of CDN2 in tumors (FIG. 14A) and plasma (FIG. 14B) as measured by LC-MS/MS at 5 minutes, 30 minutes, 2 hours, 6 hours, 24 hours, and 48 hours after single IT injection (n=3 per group at each time point) in C57BL/6 mice implanted subcutaneously with 1×10^6 B16F10 cells. FIGS. 14C-14E are graphs showing the relative expression of IFN-β (FIG. 14C), CXCL9 (FIG. 14D), and CXCL10 (FIG. 14E) genes as measured by RT-qPCR, normalized against the housekeeping gene RPS13. FIGS. 14F-14H are graphs showing serum levels of IFN-β (FIG. 14F), TNF-α (FIG. 14G), and IL-6 (FIG. 14H) (n=5 per group). Data are presented as means±s.e.m. *, P<0.05; **, P<0.01; ***, P<0.001; ****, P<0.0001 by one-way ANOVA with Tukey's multiple comparison test.
(§4) A major limitation of IT administration of free CDN is its rapid dissemination into the systemic circulation (see Sivick et al., Cell Rep. 25, 3074-3085.e5 (2018)). […] This reduces the effectiveness of the CDN to elicit a productive immune response in the tumor resulting in higher doses of free CDN required for efficacy. In B16F10 tumors after injection of exoSTING or free CDN, we measured the amount of CDN in tumors and blood over time.
Further, free CDN2 is cleared rapidly in the systemic circulation (106 mL/hr).

[4] = Pharmacokinetics of CDN in injected B16F10 tumors, LC-MS/MS; format: in vivo, C57BL/6 mice; details: injected tumor
Description: as §3, §4

[5] = tested on: B16F10 tumors; test: Histology of injected B16F10 tumors (H&E, IFN-β mRNA, CD8, F4/80); format: in vivo; details: free CDN2 20 μg, exoSTING 0.1 μg, 4 and 24 hours after two injections, FIG. 15A
Description: In order to distinguish the immune stimulatory versus immune ablative mechanisms of action between free CDN2 and exoSTING, we compared the effects of efficacious doses of free CDN2 (20 μg) or exoSTING (0.1 μg) after IT dosing in a therapeutic setting with the B16F10 model.

[6] = tested on: global gene expression in B16F10 tumors; test: RNA sequencing of B16F10 tumors after 1 or 2 IT injections; format: in vivo, mice; details: after 2 doses, exoSTING 0.1 μg, free CDN2 20 μg, FIG. 16E
Description: FIGS. 16A-16C are box plots showing the relative expression of IFN-β (FIG. 16A), CD274 (FIG. 16B), and CXCL9 (FIG. 16C) as measured by NanoString in RNA samples collected four hours after IT injection of PBS, CDN2 (0.1, 20, or 100 μg), and exoCDN2 (0.001, 0.01, or 0.1 μg) into B16F10 tumors. Data are presented as means±s.e.m. *, P<0.05; **, P<0.01; ***, P<0.001; ****, P<0.0001 by one-way ANOVA with Tukey's multiple comparison test. […] All genes were compared to PBS treatment. […] Adjusted P values are indicated.
To further characterize the immune pathway activation, we evaluated the global gene expression changes after 1 or 2 IT injections of efficacious doses of exoSTING (0.1 μg) and free CDN2 (20 μg) by RNA sequencing. All samples were compared to PBS treatment. […] Tcf7 (which encodes TCF1) is a key transcription factor expressed in the stem-like progenitor CD8^+ T cells (Siddiqui et al., Immunity. 50, 195-211.e10 (2019)). This cell subset is required for response to checkpoint inhibitor therapies. (Siddiqui, 2019). […] This loss may underlie the lack of immunological memory response to free CDN.
In contrast, high doses of free CDN decrease the expression of these key genes as well as reducing the expression of APC markers.

[7] = tested on: CD8+ T cells and XCR1+ DCs in B16F10 tumors; test: Flow cytometry of B16F10 tumors after two IT injections; format: in vivo, mice; details: 20 μg, FIG. 15D
Description: FIG. 15 is a graphical representation of IFN-β positive area. FIG. 15C is a graphical representation of CD8 positive cells. FIGS. 15D-15E are graphical representations of the percentage of CD8 T cells in live CD45^+ cells in tumors (FIG. 15D) and CD86 expression on dendritic cells (FIG. 15E) as measured by flow cytometry after 2 doses of PBS, CDN2 (20 μg), and exoCDN2 (0.2 μg) into B16F10 tumors (n=5 per group). *, P<0.05; **, P<0.01; ****, P<0.0001 by one-way ANOVA with Tukey's multiple comparison test; n.s., non-significant.
We also assessed CD8^+ T cell and XCR1^+ DC activation after two IT injections of exoSTING and free CDN2 by flow cytometry. […] This increase in CD8^+ T cell is consistent with the increased CXCL9 and CXCL10 production following exoSTING treatment (FIGS. 14D and 14E). […] The enhanced activation of this DC subset seen with exoSTING but to a lesser degree with free CDN, is consistent with the observed superiority of anti-tumor activity of exoSTING in the B16F10 model (FIGS. 12 and 13).

[8] = tested on: naïve T cells; test: IFN-β production in naïve T cells; format: cell-based, human
Excerpt: as §2

[9] = tested on: T cells stimulated by anti-CD3 and anti-CD28; test: IFN-β production in T cells stimulated by anti-CD3 and anti-CD28; format: cell-based, human; details: FIG. 17F
Excerpt: as §1, §2

[10] = tested on: human PBMC; test: IFN-β production in human PBMC supernatant; format: cell-based; details: FIG. 12A
Description: We compared the activity of co-administered exosomes and free CDN with exoSTING in in vitro PBMC assays.
These populations of exosomes were next examined for their capacity activate STING pathway as measured by IFN-β production. […] These CDN-loaded exosomes were assayed in vitro for their potential to induce IFN-β production in PBMC cultures. EC50 values and maximal IFN-β cytokine production (Cmax) were assessed from multiple donors.

[11] = tested on: B16F10 tumor; test: B16F10 subcutaneous tumor growth after intratumoral injection; format: in vivo, C57BL/6 mice; details: 0.1 μg CDN2, IT, FIG. 12F
Description: C57BL/6 mice were implanted subcutaneously with 1×10^6 B16F10 cell on right flank of mice. Additional implantation of tumors is specified in each legend. When tumor volumes reached 50-100 mm^3, testing agents were injected intratumorally 3 times with 3 days interval. Red arrows in the graph indicate IT injection days. Tumor growth were measured over time. n=5 per group. […] RLU: Relative Luminescent Unit. ****, P<0.0001 by two-way ANOVA with Tukey's multiple comparison test for tumor growth studies. Data are presented as means±s.e.m. (FIGS. 12D-12F).
Data are presented as means±s.e.m. RLU: Relative Luminescent Unit. […]
We have previously identified and characterized exosome-specific surface glycoproteins using unbiased proteomic analysis and identified the immunoglobulin super family member PTGFRN as a protein that is enriched on human exosomes and contains nine predicted N-linked glycosylation sites (see Dooley et al., Cancer Res. 79(13 Suppl), Abstract nr 2150 (2019), which is incorporated by reference herein in its entirety). […] These populations of exosomes were next examined for their capacity activate STING pathway as measured by IFN-β production. […] EC50 values and maximal IFN-β cytokine production (Cmax) were assessed from multiple donors. […]

SMILES	increase in the number of IFN-γ positive spots compared to PBS control ([1]; 0.2 μg)	IFN-γ positive spots compared to PBS control ([1]; 20 μg)	T cell death by Cytotox dye staining (maximum, dose dependent) [2]	detection in the plasma at the 30-minute timepoint ([3]; 30 μg IT)	clearance in the systemic circulation ([3]; free CDN2 after IT injection (30 μg)) [mL/h]	AUC ([4]; 0.3 μg single IT) [ng·h/mL]	CL ([4]; 0.3 μg single IT) [mL/h]	Cmax ([4]; 0.3 μg single IT)	T1/2 ([4]; 0.3 μg single IT) [h]	AUC ([4]; 30 μg single IT)	CL ([4]; 30 μg single IT) [mL/h]	Cmax ([4]; 30 μg single IT)	T1/2 ([4]; 30 μg single IT) [h]	tissue damage by H&E staining [5]	Tcf7 levels [6]	number of viable CD8+ T cells compared PBS control [7]	IFN-β production [8]	pEC50 [9]	pEC50 [10]	tumor growth [11]
Nc1ncnc2c1ncn2[C@@H]1O[C@@H]2COP(O)(=S)O[C@@H]3C(O)[C@@H](COP(O)(=S)O[C@H]2[C@H]1O)O[C@H]3n1cnc2c(N)ncnc21 (some centres unmarked) [CDN1, ML RR-S2]	failed to induce IFN-γ positive spots	failed to induce IFN-γ positive spots																		
Nc1ncnc2c1ncn2[C@@H]1O[C@@H]2COP(O)(=S)O[C@H]3[C@@H](F)[C@H](n4cnc5c(=O)[nH]cnc54)O[C@@H]3COP(O)(=S)O[C@H]2[C@H]1F (some centres unmarked) [CDN2, cAIM(PS)2 Difluor (Rp/Sp)]			~ 20 % of T cells	detectable in the plasma	106	799	0.375	1,240 ng/mL	0.620	97,300 ng · hr/mL	0.308	13,800 ng/mL	2.05	significant evidence of tissue damage in the skin and tumor cell death	decrease in Tcf7 levels	significantly decreased	no IFN-β production was observed	~5.09	~5.01	Neither free CDN2 (0.1 μg) or co-administered PTGFRN^+/+ exosomes mixed with free CDN2 (0.1 μg) resulted in measurable tumor growth inhibition
